The target in the assay is recombinant DYRK1A kinase (Homo sapiens (Human), UniProt Q13627). The experiment in a line: DYRK1A kinase assay (Ser/Thr 18 peptide Z-lyte FRET). It is filed as biochemical. The note with it: DYRK1A kinase activity, Z-lyte Ser/Thr 18 peptide, 15 μM ATP; method text calls the value IC50; read-out: EC50 (the source's name). In short, it runs like this:
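Z-lyte FRET: recombinant DYRK1A 0.25 μg/mL, ATP 15 μM, Ser/Thr 18 peptide 4 μM, with compound (11-point 1:3, 10 μM top) 1 h at room temperature, then development reagent 1 h. Coumarin/fluorescein emission ratio converted to % phosphorylation; IC50 by non-linear regression, duplicates.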

As for `CCO[C@H]1C[C@@H](Nc2nc(OC)c3c(-c4ccc5nnn(C)c5c4)ccn3n2)C1` [Compound 624, N-(cis-3-Ethoxycyclobutyl)-4-methoxy-5-(1-methyl-1H-benzo[d][1,2,3]triazol-6-yl)pyrrolo[2,1-f][1,2,4]triazin-2-amine], the IC50 is 8.6 nM.
In the case of `COc1nc(N[C@@H]2CCN(C3COC3)CC2(F)F)nn2ccc(-c3ccc4nnn(C)c4c3)c12` [Compound 628, (R)—N-(3,3-Difluoro-1-(oxetan-3-yl)piperidin-4-yl)-4-methoxy-5-(1-methyl-1H-benzo[d][1,2,3]triazol-6-yl)pyrrolo[2,1-f][1,2,4]triazin-2-amine] it was 6.3 nM.
In the case of `COc1nc(N[C@@H]2CCN(C)C[C@@H]2F)nn2ccc(-c3ccc4nc(C)n(CC(F)F)c4c3)c12` [Compound 124, 5-(1-(2,2-Difluoroethyl)-2-methyl-1H-benzo[d]imidazol-6-yl)-N-((3S,4R)-3-fluoro-1-methylpiperidin-4-yl)-4-methoxypyrrolo[2,1-f][1,2,4]triazin-2-amine] it was 2.8 nM.
Take `CNC(=O)[C@]1(C)C[C@@H](Nc2nc(OC)c3c(-c4ccc5nc(C)n(CC(F)F)c5c4)ccn3n2)C1` [Compound 502, trans-3-((5-(1-(2,2-Difluoroethyl)-2-methyl-1H-benzo[d]imidazol-6-yl)-4-methoxypyrrolo[2,1-f][1,2,4]triazin-2-yl)amino)-N,1-dimethylcyclobutane-1-carboxamide]: the IC50 was found to be 1.4 nM.
The result for `COc1nc(N[C@H]2CC[C@](C)(O)CC2)nn2ccc(-c3ccc4ncc(C(N)=O)n4c3)c12` [Compound 104, 6-(2-((trans-4-hydroxy-4-methylcyclohexyl)amino)-4-methoxypyrrolo[2,1-f][1,2,4]triazin-5-yl)imidazo[1,2-a]pyridine-3-carboxamide] reads 1.2 nM.
The result for `CCC(=O)N[C@]1(C)C[C@@H](Nc2nc(OC)c3c(-c4ccc5nnn(C)c5c4)ccn3n2)C1` [Compound 207, N-(trans-3-((4-Methoxy-5-(1-methyl-1H-benzo[d][1,2,3]triazol-6-yl)pyrrolo[2,1-f][1,2,4]triazin-2-yl)amino)-1-methylcyclobutyl)propionamide] reads 1.3 nM; that for `COc1nc(N[C@H]2C[C@](C)(N3CCCC3=O)C2)nn2ccc(-c3ccc4nnn(C)c4c3)c12` [Compound 223, 1-(trans-3-((4-methoxy-5-(1-methyl-1H-benzo[d][1,2,3]triazol-6-yl)pyrrolo[2,1-f][1,2,4]triazin-2-yl)amino)-1-methylcyclobutyl)pyrrolidin-2-one], 1.6 nM.
In the case of `COc1nc(N[C@H]2CC[C@@H](NC(C)=O)CC2)nn2ccc(-c3ccc4nccn4c3)c12` [Compound 53, N-(cis-4-((5-(Imidazo[1,2-a]pyridin-6-yl)-4-methoxypyrrolo[2,1-f][1,2,4]triazin-2-yl)amino)cyclohexyl)acetamide] it was 0.7 nM.
In the case of `COc1nc(N[C@H]2C[C@](C)(C(=O)NC3(C)CCC3)C2)nn2ccc(-c3ccc4ncccc4c3)c12` [Compound 1040, trans-3-((4-Methoxy-5-(quinolin-6-yl)pyrrolo[2,1-f][1,2,4]triazin-2-yl)amino)-1-methyl-N-(1-methylcyclobutyl)cyclobutane-1-carboxamide], the IC50 is 2.7 nM.
As to `COc1nc(N[C@@H]2CN(C)C[C@@H]2F)nn2ccc(-c3ccc4nnn(CC(F)F)c4c3)c12` [Compound 730, 5-(1-(2,2-Difluoroethyl)-1H-benzo[d][1,2,3]triazol-6-yl)-N-((3R,4S)-4-fluoro-1-methylpyrrolidin-3-yl)-4-methoxypyrrolo[2,1-f][1,2,4]triazin-2-amine], the IC50 was 4.6 nM.
The result for `COc1nc(N[C@H]2CCN(C3COC3)C[C@H]2F)nn2cc(F)c(-c3ccc4ncccc4c3)c12` [Compound 1059, 6-Fluoro-N-((3R,4S)-3-fluoro-1-(oxetan-3-yl)piperidin-4-yl)-4-methoxy-5-(quinolin-6-yl)pyrrolo[2,1-f][1,2,4]triazin-2-amine] reads 1.9 nM.
The result for `COc1nc(N[C@H]2CCN(C)CC2(F)F)nn2ccc(-c3ccc4nc(C)n(CC(F)F)c4c3)c12` [Compound 139, (S)—N-(3,3-Difluoro-1-methylpiperidin-4-yl)-5-(1-(2,2-difluoroethyl)-2-methyl-1H-benzo[d]imidazol-6-yl)-4-methoxypyrrolo[2,1-f][1,2,4]triazin-2-amine] reads 6.9 nM.
Turning to `COc1nc(N[C@H]2C[C@](C)(NC(C)=O)C2)nn2ccc(-c3ccc4nc(C)n(CCO)c4c3)c12` [Compound 171, N-(trans-3-((5-(1-(2-Hydroxyethyl)-2-methyl-1H-benzo[d]imidazol-6-yl)-4-methoxypyrrolo[2,1-f][1,2,4]triazin-2-yl)amino)-1-methylcyclobutyl)acetamide], the IC50 came out at 2.9 nM.
The result for `COc1nc(NC2CCC3(CC2)CNC3)nn2ccc(-c3ccc4ncnn4c3)c12` [Compound 195, 5-([1,2,4]Triazolo[1,5-a]pyridin-6-yl)-4-methoxy-N-(2-azaspiro[3.5]nonan-7-yl)pyrrolo[2,1-f][1,2,4]triazin-2-amine] reads 3.9 nM.
For `COc1nc(N[C@H]2C[C@](C)(C(=O)N3CCCC3)C2)nn2ccc(-c3ccc4nnn(C)c4c3)c12` [Compound 222, (trans-3-((4-methoxy-5-(1-methyl-1H-benzo[d][1,2,3]triazol-6-yl)pyrrolo[2,1-f][1,2,4]triazin-2-yl)amino)-1-methylcyclobutyl)(pyrrolidin-1-yl)methanone], the IC50 was 3.5 nM.
In the case of `COc1nc(NC2CC3(CCN(C(C)=O)CC3)C2)nn2ccc(-c3ccc4nccnc4c3)c12` [Compound 386, 1-(2-((4-Methoxy-5-(quinoxalin-6-yl)pyrrolo[2,1-f][1,2,4]triazin-2-yl)amino)-7-azaspiro[3.5]nonan-7-yl)ethan-1-one] it was 0.9 nM.
In the case of `CCO[C@H]1C[C@@H](Nc2nc(OC)c3c(-c4cnc5nccn5c4)ccn3n2)C1` [Compound 931, N-(cis-3-Ethoxycyclobutyl)-5-(imidazo[1,2-a]pyrimidin-6-yl)-4-methoxypyrrolo[2,1-f][1,2,4]triazin-2-amine], the IC50 came out at 1.5 nM.
The result for `COc1nc(NC2CCC(C)(C#N)CC2)nn2ccc(-c3ccc4nnn(CC(F)F)c4c3)c12` (centres unmarked) [Compound 721, 4-((5-(1-(2,2-Difluoroethyl)-1H-benzo[d][1,2,3]triazol-6-yl)-4-methoxypyrrolo[2,1-f][1,2,4]triazin-2-yl)amino)-1-methylcyclohexane-1-carbonitrile] reads 5.7 nM; that for `COc1nc(N[C@@H]2CN(C3(C#N)COC3)C[C@@H]2F)nn2ccc(-c3ccc4nnn(CC(F)F)c4c3)c12` [Compound 741, 3-((3R,4S)-3-((5-(1-(2,2-Difluoroethyl)-1H-benzo[d][1,2,3]triazol-6-yl)-4-methoxypyrrolo[2,1-f][1,2,4]triazin-2-yl)amino)-4-fluoropyrrolidin-1-yl)oxetane-3-carbonitrile], 1.2 nM.
In the case of `COc1nc(NCC(C)(C)O)nn2ccc(-c3ccc4nnn(CC(F)F)c4c3)c12` [Compound 696, 1-((5-(1-(2,2-Difluoroethyl)-1H-benzo[d][1,2,3]triazol-6-yl)-4-methoxypyrrolo[2,1-f][1,2,4]triazin-2-yl)amino)-2-methylpropan-2-ol] it was 1.3 nM.
